The values below come from patent US7713937B2, “Synthetic peptide amides and dimeric forms thereof” (Cara Therapeutics, Inc., priority 2006, dated 2010).

SMILES strings stand for the structures. Square brackets hold non-standard residues; d marks the D form. Side chains are listed from the residue outwards. Peptide text beside a SMILES is read from it. * marks the point of attachment. Homopiperazine(4-amidino) = N=C(N)N1CCCN(*)CC1; dAgp = N=C(N)NC[C@@H](N)C(=O)O; dOrn = NCCC[C@@H](N)C(=O)O

Experiment [1] addresses T1, mouse kappa opioid receptor (mKOR) (Mus musculus, UniProt P33534).
T1 construct: Stimulation of Endogenous Mouse Kappa-Opioid Receptor in R1.G1 Cells; host or cells: R1.G1 mouse thymoma cells
The experiment can be described thus: cell-based. Particulars: for Emax: read-out: mKOR Efficacy(%).

In experiment [2] the target is T2, human kappa opioid receptor (hKOR) (Homo sapiens, UniProt P41145).
T2 construct: expressed in transfected cells; host or cells: HEK-293 cells, transient transfection with Fugene6
The experiment can be described thus: cell-based. The conditions noted are these: for Emax: HEK293, read-out: hKOR Efficacy(%).

T1 sequence (P33534 whole entry): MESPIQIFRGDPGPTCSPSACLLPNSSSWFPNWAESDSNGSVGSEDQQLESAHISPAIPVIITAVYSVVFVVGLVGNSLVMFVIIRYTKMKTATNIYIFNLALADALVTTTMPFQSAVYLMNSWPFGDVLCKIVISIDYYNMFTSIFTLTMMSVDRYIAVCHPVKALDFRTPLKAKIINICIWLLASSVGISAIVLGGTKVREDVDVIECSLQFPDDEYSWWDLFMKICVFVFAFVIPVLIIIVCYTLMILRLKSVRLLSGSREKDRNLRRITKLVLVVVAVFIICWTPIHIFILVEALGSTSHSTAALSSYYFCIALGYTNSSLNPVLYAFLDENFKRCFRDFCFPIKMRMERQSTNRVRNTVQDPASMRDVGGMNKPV
T2 sequence (P41145 whole entry): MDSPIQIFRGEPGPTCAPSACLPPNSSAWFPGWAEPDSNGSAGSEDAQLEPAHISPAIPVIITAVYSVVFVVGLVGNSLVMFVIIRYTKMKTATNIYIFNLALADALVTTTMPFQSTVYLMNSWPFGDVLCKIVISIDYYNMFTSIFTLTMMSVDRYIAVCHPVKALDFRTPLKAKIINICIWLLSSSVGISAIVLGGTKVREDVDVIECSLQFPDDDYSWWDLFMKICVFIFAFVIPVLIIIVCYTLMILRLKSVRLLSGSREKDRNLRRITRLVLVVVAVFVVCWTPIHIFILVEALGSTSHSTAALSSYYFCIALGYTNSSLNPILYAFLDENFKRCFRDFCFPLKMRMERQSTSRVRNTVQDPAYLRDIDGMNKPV

As for `CNCCCC[C@@H](NC(=O)[C@@H](CC(C)C)NC(=O)[C@@H](Cc1ccccc1)NC(=O)[C@H](N)Cc1ccccc1)C(=O)N1CCCN(C(=N)N)CC1` [Compound (1), D-Phe-D-Phe-D-Leu-(ε-Me)D-Lys-[4-amidinohomopiperazine amide]], in experiment [1], the concentration giving a half-maximal response (EC50) turned out to be 0.043 nM and the Emax is 103%. Moreover, in experiment [2], the EC50 worked out at 0.15 nM and the Emax was 97%.
In the same order, the values of `CC(C)C[C@@H](NC(=O)[C@@H](Cc1ccccc1)NC(=O)[C@H](N)Cc1ccccc1)C(=O)N[C@H](CCCCN)C(=O)N1CCC2(CCN(C)C2=O)CC1` [Compound (26), D-Phe-D-Phe-D-Leu-D-Lys-[2-methyl-2,8-diazaspiro[4,5]decan-1-one amide]] are 0.0194 nM, 86%, 0.0083 nM and 99%.
On to `CC(C)C[C@@H](NC(=O)[C@@H](Cc1ccccc1)NC(=O)[C@H](N)Cc1ccccc1)C(=O)N[C@H](CCCN)C(=O)NCCCC[C@H](NC(=O)[C@@H](CCCN)NC(=O)[C@@H](CC(C)C)NC(=O)[C@@H](Cc1ccccc1)NC(=O)[C@H](N)Cc1ccccc1)C(N)=O` [Compound (80)] (H-[dF][dF][dL][dOrn]K([dOrn-dL-dF-dF])-NH2), for which, in experiment [1], a half-maximal response (EC50) required 1.3 nM and the Emax amounted to 91%. In experiment [2], this compound displayed a concentration for a half-maximal effect (EC50) of 0.25 nM.
As to `CC(C)C[C@@H](NC(=O)[C@@H](Cc1ccccc1)NC(=O)[C@H](N)Cc1ccccc1)C(=O)N[C@H](CCCN)C(=O)N1CCC(N2CCC[C@H]2C(=O)O)CC1` [Compound (47), D-Phe-D-Phe-D-Leu-D-Orn-[N-(4-piperidinyl)-L-proline]-OH], in experiment [1], the EC50 is 0.085 nM and the Emax amounted to 99%. For the same compound, in experiment [2], the EC50 was 0.17 nM and the Emax came out at 92%.
Consider `CC(C)C[C@@H](NC(=O)[C@@H](Cc1ccccc1)NC(=O)[C@H](N)Cc1ccccc1)C(=O)N[C@H](CCCNC(=N)N)C(=O)N1CCCN(C(=N)N)CC1` [Compound (24), D-Phe-D-Phe-D-Leu-D-Arg-[4-amidinohomopiperazine amide]] (H-[dF][dF][dL][dR]-{Homopiperazine(4-amidino)}), for which the EC50 is 0.036 nM in experiment [1] and 0.09 nM in experiment [2]. Besides, the Emax in experiment [1] worked out at 97%; in experiment [2], 93%.
For the compound `CC(C)C[C@@H](NC(=O)[C@@H](Cc1ccccc1)NC(=O)[C@H](N)Cc1ccccc1)C(=O)N[C@H](CCCCN)C(=O)NCc1ccc(C(F)(F)F)nc1` [Compound (72), D-Phe-D-Phe-D-Leu-D-Lys-[6-trifluoromethyl-3-aminomethylpyridine amide]], in experiment [1], the EC50 worked out at 0.485 nM and the Emax amounted to 85%. Besides, in experiment [2], a half-maximal effect (EC50) was put at 0.0667 nM and the Emax was determined as 95%.
Regarding `CC(C)C[C@@H](NC(=O)[C@@H](Cc1ccccc1)NC(=O)[C@H](N)Cc1ccccc1)C(=O)N[C@H](CCCN)C(=O)N1CCC(N)(C(=O)O)CC1` [Compound (43), D-Phe-D-Phe-D-Leu-D-Orn-[ω(4-aminopiperidine-4-carboxylic acid)]-OH], the EC50 in experiment [1] was 0.041 nM; in experiment [2] it was 0.14 nM. Also, the figures for the Emax in experiment [1] and in experiment [2] were 100% and 107%, respectively.
With `CC(C)C[C@@H](NC(=O)[C@@H](Cc1ccccc1)NC(=O)[C@H](N)Cc1ccccc1)C(=O)N[C@H](CCCCN)C(=O)NCC1CCOCC1` [Compound (73)], in experiment [1], the EC50 turned out to be 0.633 nM and the Emax worked out at 89%. In experiment [2], the EC50 was found to be 0.0034 nM and the Emax worked out at 99%.
Consider `CC(C)C[C@@H](NC(=O)[C@@H](Cc1ccccc1)NC(=O)[C@H](N)Cc1ccccc1)C(=O)N[C@H](CNC(=N)N)C(=O)N1CCCN(C(=N)N)CC1` [Compound (18), D-Phe-D-Phe-D-Leu-(β-amidino)D-Dap-[4-amidinohomopiperazine amide]] (H-[dF][dF][dL][dAgp]-{Homopiperazine(4-amidino)}), for which, in experiment [1], the EC50 turned out to be 1.02 nM and the Emax is 103%. Moreover, in experiment [2], the EC50 is 1.15 nM and the Emax amounted to 93%.
`CC(C)C[C@@H](NC(=O)[C@@H](Cc1ccccc1)NC(=O)[C@H](N)Cc1ccccc1)C(=O)N[C@H](CCCCNC(C)C)C(=O)N1CCCN(C(=N)N)CC1` [Compound (17), D-Phe-D-Phe-D-Leu-(ε-iPr)D-Lys-[4-Amidinohomopiperazine amide]]: in experiment [1], the EC50 was 0.039 nM and the Emax is 103%. Besides, in experiment [2], the EC50 amounted to 0.1 nM and the Emax was determined as 102%.
In the case of `CC(C)C[C@@H](NC(=O)[C@@H](Cc1ccccc1)NC(=O)[C@H](N)Cc1ccccc1)C(=O)N[C@H](CCCCN)C(=O)NCC1OCCO1` [Compound (62)], in experiment [1], the midpoint of the response, the EC50, lay at 0.147 nM and the Emax came to 85%. In addition, in experiment [2], the EC50 amounted to 0.021 nM and the Emax was determined as 98%.
In the case of `CC(C)C[C@@H](NC(=O)[C@@H](Cc1ccccc1)NC(=O)[C@H](N)Cc1ccccc1)C(=O)N[C@H](CCCN)C(=O)N1CCC(N2CCC[C@H]2C(N)=O)CC1` [Compound (50), D-Phe-D-Phe-D-Leu-D-Orn-[N-(4-piperidinyl)-L-proline]-NH2], in experiment [1], the EC50 is 0.022 nM and the Emax turned out to be 96%. The midpoint of the response in experiment [2], the EC50, lay at 0.19 nM.
On to `CC(C)C[C@@H](NC(=O)[C@@H](Cc1ccccc1)NC(=O)[C@H](N)Cc1ccccc1)C(=O)N[C@H](CCCCN)C(=O)N1CCC(n2c(=O)[nH]c3cc(Cl)ccc32)CC1` [Compound (28), D-Phe-D-Phe-D-Leu-D-Lys-[5-chloro-1-(piperidin-4-yl)-1H-benzo[d]imidazol-2(3)H-one amide]], for which the figures for the Emax in experiment [1] and in experiment [2] were 83% and 100%, respectively.
Turning to `CC(C)C[C@@H](NC(=O)[C@@H](Cc1ccccc1)NC(=O)[C@H](N)Cc1ccccc1)C(=O)N[C@H](CCCCN)C(=O)N1CCC(n2cc(-c3ccccc3)[nH]c2=O)CC1` [Compound (30)], in experiment [1], the EC50 was 0.129 nM. Further, the figures for the Emax in experiment [1] and in experiment [2] were 88% and 95%, respectively.
Take `CC(C)C[C@@H](NC(=O)[C@@H](Cc1ccccc1)NC(=O)[C@H](N)Cc1ccccc1)C(=O)N[C@H](CCCCN)C(=O)N1CCC(n2c(=O)[nH]c3ccccc32)CC1` [Compound (36), D-Phe-D-Phe-D-Leu-D-Lys-[1-(piperidin-4-yl)-1H-benzo[d]imidazol-2(3H)-one amide]]: the results for the Emax in experiment [1] and in experiment [2] were 87% and 100%, respectively.
`CC(C)C[C@@H](NC(=O)[C@@H](Cc1ccccc1)NC(=O)[C@H](N)Cc1ccccc1)C(=O)N[C@H](CCCCN)C(=O)N1CCN(S(=O)(=O)c2ccccc2)CC1` [Compound (69), D-Phe-D-Phe-D-Leu-D-Lys-[1-(phenylsulfonyl)piperazine amide]]: in experiment [1], the EC50 was found to be 0.53 nM and the Emax turned out to be 87%. For the same compound, in experiment [2], the half-maximal effective concentration (EC50) was determined as 0.011 nM and the Emax amounted to 101%.
Turning to `CC(C)C[C@@H](NC(=O)[C@@H](Cc1ccccc1)NC(=O)[C@H](N)Cc1ccccc1)C(=O)N[C@H](CCCNC(C)C)C(=O)N1CCCN(C(=N)N)CC1` [Compound (59), D-Phe-D-Phe-D-Leu-(δ-iPr)D-Orn-[4-amidinohomopiperazine amide]], in experiment [1], the EC50 came out at 0.081 nM and the Emax is 97%. Also, in experiment [2], the EC50 was 0.08 nM and the Emax turned out to be 100%.

In general, EC50 refers to the concentration that produces a half-maximal response. Low readings indicate an effect from little substance, high ones a need for much substance.
